What all share (assay type): cell-based
What all share (conditions): component A (XP or YS) alone

Test [1] has as its system Bacteroides fragilis ATCC25285 (脆弱拟杆菌ATCC25285). Put plainly: Antibacterial action (MIC, FICI) against Bacteroides fragilis ATCC25285 (Table 26).
In test [2] the test system is Shigella flexneri 2aEW-10 (福氏志贺氏菌2aEW-10). Put plainly: Antibacterial action (MIC, FICI) against Shigella flexneri 2aEW-10 (Table 15).
Test [3] concerns Micrococcus lysodeikticus 2665 (溶壁微球菌2665). Put plainly: Antibacterial action (MIC, FICI) against Micrococcus lysodeikticus 2665 (Table 4).
For test [4], the system named is Klebsiella pneumoniae NCTC 9632 (肺炎克雷伯菌NCTC 9632). Put plainly: Antibacterial action (MIC, FICI) against Klebsiella pneumoniae NCTC 9632 (Table 9).
Test [5] relates to Clostridium perfringens ATCC13124 (产气荚膜梭状芽孢杆菌ATCC13124).
The subject of test [6] is Providencia stuartii 57 (斯氏普罗威登斯菌57). Put plainly: Antibacterial action (MIC, FICI) against Providencia stuartii 57 (Table 12).
The test system of test [7] is Streptococcus intermedius ATCC27335 (中间链球菌ATCC27335). Put plainly: Antibacterial action (MIC, FICI) against Streptococcus intermedius ATCC27335 (Table 20).
The subject of test [8] is Serratia marcescens IFO 3736 (黏质沙雷氏菌IFO 3736). Put plainly: Antibacterial action (MIC, FICI) against Serratia marcescens IFO 3736 (Table 10).
The test system of test [9] is Propionibacterium acnes ATCC11828 (痤疮丙酸杆菌ATCC11828). Put plainly: Antibacterial action (MIC, FICI) against Propionibacterium acnes ATCC11828 (Table 21).
Test [10] concerns Stenotrophomonas maltophilia NCTC 13637 (嗜麦芽窄食单胞菌NCTC 13637). Put plainly: Antibacterial action (MIC, FICI) against Stenotrophomonas maltophilia NCTC 13637 (Table 18).
For test [11], the system named is Escherichia coli ATCC25922 (大肠杆菌ATCC25922). Put plainly: Antibacterial action (MIC, FICI) against Escherichia coli ATCC25922 (Table 7).

As to `CCOC(=O)C1=C[C@@H](OC(CC)CC)[C@H](NC(CC(=O)O)C(=O)O)[C@@H](N=[N+]=[N-])C1` (mixture of isomers) [化合物21P, ((1R,2R,6S)-6-叠氮基-4-(乙氧基羰基)-2-(戊-3-基氧基)环己-3-烯-1-基)-DL-天门冬氨酸], the MIC_A in [1] is listed as 13 ng/mL; in test [2] it was 17 ng/mL; in test [3] it was 13 ng/mL; in [4] it was 15 ng/mL; in test [5], 56 ng/mL.

For the compound `CCOC(=O)C1=C[C@@H](OC(CC)CC)[C@H](NC(C)=O)[C@H](N)C1` [化合物9S, 乙基(3R,4R,5R)-4-乙酰氨基-5-氨基-3-(戊-3-基氧基)环己-1-烯-1-羧酸酯], the MIC_A in test [6] was 440 ng/mL; in test [1] it was 316 ng/mL; in test [3], 462 ng/mL; in [7] it was 410 ng/mL; in test [8], 864 ng/mL.

For `CCOC(=O)C1=C[C@H](OC(CC)CC)[C@H](NC(CC(=O)O)C(=O)O)[C@@H](NC(C)=O)C1` (mixture of isomers) [化合物18P, ((1R,2S,6S)-6-乙酰氨基-4-(乙氧基羰基)-2-(戊-3-基氧基)环己-3-烯-1-基)-DL-天门冬氨酸], the MIC_A came to 22 ng/mL in test [6]; 17 ng/mL in test [1]; 6 ng/mL in test [3]; 27 ng/mL in [7]; 53 ng/mL in test [8].

Turning to `CCOC(=O)C1=C[C@@H](OC(CC)CC)[C@@H](NC(C)=O)[C@H](NC(CC(=O)O)C(=O)O)C1` (mixture of isomers) [化合物5P, ((1R,5R,6S)-6-乙酰氨基-3-(乙氧基羰基)-5-(戊-3-基氧基)环己-3-烯-1-基)-DL-天门冬氨酸], the MIC_A came out at 20 ng/mL in test [1], 24 ng/mL in test [2], 17 ng/mL in test [4] and 15 ng/mL in [9].

On to `CC(=O)N[C@H]1[C@H](O)C=C(C(=O)O)C[C@@H]1NC(CC(=O)O)C(=O)O` (mixture of isomers) [化合物15P, ((1S,5R,6R)-6-乙酰氨基-3-羧基-5-羟基环己-3-烯-1-基)-DL-天门冬氨酸], for which the MIC_A in test [1] amounted to 24 ng/mL; in [2], 3 ng/mL; in [10] it was 24 ng/mL; in [11], 15 ng/mL; in [5], 47 ng/mL.

As to `CCOC(=O)C1=C[C@H](OC(CC)CC)[C@@H](N)[C@H](N)C1` [化合物17S, 乙基(3S,4S,5R)-4,5-二氨基-3-(戊-3-基氧基)环己-1-烯-1-羧酸酯], the MIC_A is reported as 929 ng/mL in [2]; 447 ng/mL in [10]; 969 ng/mL in [9]; 683 ng/mL in test [11]; 684 ng/mL in test [5].

Turning to `CCOC(=O)C1=C[C@@H](OC(CC)CC)[C@H](NC(C)=O)[C@H](NC(CC(=O)O)C(=O)O)C1` (mixture of isomers) [化合物9P, ((1R,5R,6R)-6-乙酰氨基-3-(乙氧基羰基)-5-(戊-3-基氧基)环己-3-烯-1-基)-DL-天门冬氨酸], the MIC_A was determined as 29 ng/mL in [6]; 16 ng/mL in [1]; 18 ng/mL in test [3]; 9 ng/mL in test [7]; 49 ng/mL in test [8].

Consider `CCC(CC)O[C@@H]1C=C(C(=O)OC)C[C@H](NC(CC(=O)O)C(=O)O)[C@H]1NC(C)=O` (mixture of isomers) [化合物3P, ((1S,5R,6R)-6-乙酰氨基-3-(甲氧基羰基)-5-(戊-3-基氧基)环己-3-烯-1-基)-DL-天门冬氨酸], for which the figures for the MIC_A in test [1], in test [4] and in [8] were 11 ng/mL, 22 ng/mL and 11 ng/mL, respectively.

Take `CCC(CC)O[C@@H]1C=C(C(=O)OC)C[C@H](N)[C@H]1NC(C)=O` [化合物3S, 甲基(3R,4R,5S)-4-乙酰氨基-5-氨基-3-(戊-3-基氧基)环己-1-烯-1-羧酸酯]: the MIC_A in [1] came to 362 ng/mL; in test [4] it was 424 ng/mL; in test [8], 456 ng/mL.

As to `CCOC(=O)C1=C[C@@H](OC(CC)CC)[C@H](N)[C@@H](N=[N+]=[N-])C1` [化合物21S, 乙基(3R,4R,5S)-4-氨基-5-叠氮基-3-(戊-3-基氧基)环己-1-烯-1-羧酸酯], the MIC_A in [1] stood at 375 ng/mL; in [2], 533 ng/mL; in test [3], 407 ng/mL; in test [4] it was 613 ng/mL; in [5] it was 884 ng/mL.

Take `CCC(CC)O[C@@H]1C=C(C(=O)O)C[C@H](N)[C@H]1NC(C)=O` [化合物10S, (3R,4R,5S)-4-乙酰氨基-5-氨基-3-(戊-3-基氧基)环己-1-烯-1-羧酸]: the MIC_A is 484 ng/mL in [1], 671 ng/mL in [2] and 737 ng/mL in test [9].

Consider `CCOC(=O)C1=C[C@@H](OC(CC)CC)[C@@H](NC(C)=O)[C@H](N)C1` [化合物5S, 乙基(3R,4S,5R)-4-乙酰氨基-5-氨基-3-(戊-3-基氧基)环己-1-烯-1-羧酸酯], for which the MIC_A in test [1] worked out at 323 ng/mL; in test [2], 483 ng/mL; in [4] it was 507 ng/mL; in [9] it was 919 ng/mL.

As for `CCC(CC)O[C@@H]1C=C(C(=O)O)C[C@H](NC(CC(=O)O)C(=O)O)[C@H]1NC(C)=O` (mixture of isomers) [化合物10P, ((1S,5R,6R)-6-乙酰氨基-3-羧基-5-(戊-3-基氧基)环己-3-烯-1-基)-DL-天门冬氨酸], the figures for the MIC_A in [1], in test [2] and in [9] were 6 ng/mL, 25 ng/mL and 35 ng/mL, respectively.

For `CC(=O)N[C@H]1[C@H](O)C=C(C(=O)O)C[C@@H]1N` [化合物15S, (3R,4R,5S)-4-乙酰氨基-5-氨基-3-羟基环己-1-烯-1-羧酸], the MIC_A is 730 ng/mL in test [1]; 303 ng/mL in [2]; 1138 ng/mL in test [10]; 354 ng/mL in test [11]; 681 ng/mL in test [5].

As for `CCOC(=O)C1=C[C@H](OC(CC)CC)[C@H](N)[C@@H](NC(C)=O)C1` [化合物18S, 乙基(3S,4R,5S)-5-乙酰氨基-4-氨基-3-(戊-3-基氧基)环己-1-烯-1-羧酸酯], the MIC_A is reported as 959 ng/mL in test [6]; 305 ng/mL in test [1]; 418 ng/mL in test [3]; 1137 ng/mL in test [7]; 992 ng/mL in test [8].

These data come from patent publication CN111517978A, “环己烯基-dl-天门冬氨酸衍生物及其制备方法、组合物与用途” (Zhongshan Wanhan Pharmaceutical Co ltd, priority 2020, dated 2020).
